According to patent USRE48461E1, “Modulation of androgen receptor expression” (Ionis Pharmaceuticals, Inc., priority 2012, dated 2021):
Oligonucleotides are written 5' to 3', each unit as a sugar letter and its base; * is a phosphorothioate linkage, no mark a phosphodiester; rarer units and linkages stand in square brackets, end groups in braces. Plain capitals give the bases only. k = constrained ethyl (cEt); [5mC] = 5-methylcytosine; d = 2'-deoxy (DNA)

Experiments:
[1] = tested on: prostate-specific antigen (PSA) mRNA; experiment: PSA mRNA levels in LMR20 cells; type: cell-based, human; settings: for PSA mRNA levels (% baseline value) after treatment with DHT / PSA mRNA levels (% baseline value) after treatment with R1881 / PSA mRNA levels (% baseline value) of cells without AR agonist treatment: LMR20 cells; for PSA mRNA levels (% baseline value) after treatment with DHT: DHT 10 nM 72 hrs; for PSA mRNA levels (% baseline value) after treatment with R1881: R1881 10 nM 72 hrs; for PSA mRNA levels (% baseline value) of cells without AR agonist treatment: no AR agonist
Protocol: LMR20 cells were plated at 1,500 cells per well in phenol red-free medium with CSS. […] Results are presented in Tables 43-45 as mRNA levels expressed as a percentage of the baseline values. mRNA levels may be lowered or increased after treatment.

total AR mRNA = experiment: Total (full-length) AR mRNA in C4-2B MR cells, free uptake; type: cell-based, human; settings: 24 hrs; for Percent inhibition of full-length AR mRNA in C4-2B MR cells: free uptake
Method in brief: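 Cells grown in RPMI1640 with 10% FBS received antisense oligonucleotides at 0.04, 0.20, 1.00 and 5.00 μM in the medium by free uptake, no transfection agent. After 24 hrs, total AR mRNA quantified by real-time qPCR with primer probe set RTS3559.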

549458 (kG*kT*kT*dG*dA*dT*dT*dT*dA*dA*dT*dG*dG*kT*kT*kG) [compound 549458]
PSA mRNA levels (% baseline value) after treatment with DHT ([1]; ASO 0.04 μM): 93 % baseline value | PSA mRNA levels (% baseline value) after treatment with DHT ([1]; ASO 0.20 μM): 71 % baseline value | PSA mRNA levels (% baseline value) after treatment with DHT ([1]; ASO 1.0 μM): 47 % baseline value | PSA mRNA levels (% baseline value) after treatment with DHT ([1]; ASO 5.0 μM): 47 % baseline value | PSA mRNA levels (% baseline value) after treatment with R1881 ([1]; ASO 0.04 μM): 93 % baseline value | PSA mRNA levels (% baseline value) after treatment with R1881 ([1]; ASO 0.20 μM): 67 % baseline value | PSA mRNA levels (% baseline value) after treatment with R1881 ([1]; ASO 1.0 μM): 50 % baseline value | PSA mRNA levels (% baseline value) after treatment with R1881 ([1]; ASO 5.0 μM): 44 % baseline value | PSA mRNA levels (% baseline value) of cells without AR agonist treatment ([1]; ASO 0.04 μM): 135 % baseline value | PSA mRNA levels (% baseline value) of cells without AR agonist treatment ([1]; ASO 0.20 μM): 85 % baseline value | PSA mRNA levels (% baseline value) of cells without AR agonist treatment ([1]; ASO 1.0 μM): 50 % baseline value | PSA mRNA levels (% baseline value) of cells without AR agonist treatment ([1]; ASO 5.0 μM): 72 % baseline value | Percent inhibition of full-length AR mRNA in C4-2B MR cells (total AR mRNA; 0.04 μM): 41% | Percent inhibition of full-length AR mRNA in C4-2B MR cells (total AR mRNA; 0.20 μM): 78% | Percent inhibition of full-length AR mRNA in C4-2B MR cells (total AR mRNA; 1.00 μM): 94% | Percent inhibition of full-length AR mRNA in C4-2B MR cells (total AR mRNA; 5.00 μM): 97%

549372 (kA*kA*kG*dT*dT*dG*dT*dA*dG*dT*dA*dG*dT*k[5mC]*kG*k[5mC]) [compound 549372]
Percent inhibition of full-length AR mRNA in C4-2B MR cells (total AR mRNA; 0.04 μM): 35% | Percent inhibition of full-length AR mRNA in C4-2B MR cells (total AR mRNA; 0.20 μM): 47% | Percent inhibition of full-length AR mRNA in C4-2B MR cells (total AR mRNA; 1.00 μM): 88% | Percent inhibition of full-length AR mRNA in C4-2B MR cells (total AR mRNA; 5.00 μM): 91%

GTTGATTTAATGGTTG (all phosphorothioate, sugars by position not given here; further chemistry not fully specified) [ISIS 549458]
PSA mRNA levels in LMR20 cells ([1]; with or without DHT/R1881): reduced PSA levels and TMPRSS2 more extensively than the LNA gapmer ISIS 554221 or MDV3100 | total AR transcript levels (total AR mRNA; C4-2B MR cells, 0.04-5.00 μM free uptake): reduced total AR transcript levels in a dose dependent manner more extensively than treatment with ISIS 554221
